In BindingDB's records for doi:10.1021/jm00073a011 (Glaxo Group Research, 1993):

molecular target: T1, Dimer of Gag-Pol polyprotein [489-587] (Human immunodeficiency virus 1, UniProt P12497); test: Protease Inhibition Assay; details: pH 6; 37 °C
T1 construct: 489-587
Method: IC50 values were obtained by assaying the enzyme against the synthetic substrate peptide […], which was tritiated at the proline residue, and then was coupled via its N-terminal lysine to an Affi-gel bead mixture. The assay was performed in 96-well microtiter filtration plates. The plates containing HIV protease and radiolabeled substrate beads were incubated with or without inhibitor. […] IC50 determinations were performed in duplicate at each concentration with mean values used for data analysis.

Row | SMILES | IC50 [nM]
1 | CC1(C)S[C@H]([C@H](NC(=O)Cc2ccccc2)C(N)=O)N[C@H]1C(=O)NCCNC(=O)[C@@H]1N[C@@H]([C@H](NC(=O)Cc2ccccc2)C(N)=O)SC1(C)C | 3
2 | CCNC(=O)[C@@H](NC(=O)Cc1ccccc1)[C@@H]1N[C@@H](C(=O)NCCNC(=O)[C@@H]2N[C@@H]([C@H](NC(=O)Cc3ccccc3)C(=O)NCC)SC2(C)C)C(C)(C)S1 | 4.8
3 | COC(=O)[C@@H](NC(=O)Cc1ccccc1)[C@@H]1N[C@@H](C(=O)NCCNC(=O)[C@@H]2N[C@@H]([C@H](NC(=O)Cc3ccccc3)C(=O)OC)SC2(C)C)C(C)(C)S1 [[2R-[2a(R*),4B ] ]-4,4-[1,2-Ethanediylbis[aminocarbonyl] ]-bis[5,5-dimethyl-a-[ (phenylacetyl)amino]-2-thiazolidineacetic acid, methyl ester]] | 60
